SMILES strings stand for the structures. Converted amounts (≈) assume the structure as drawn. A value given as a limit tells only on which side of the number the result lay.

The results in this text go back to ChEMBL document CHEMBL3286240, “Inhibition of Enterococcus faecalis biofilm formation by highly active lactones and lactams analogues of rubrolides” (Eur J Med Chem, 2014).

Test [1] relates to Enterococcus faecalis. Briefly: Antimicrobial activity against Enterococcus faecalis assessed as bacterial growth at 0.34 ug/ml after 20 hrs by microtiter plate assay. The test is classed as functional.
For test [2], the system named is Enterococcus faecalis. Description: Antimicrobial activity against Enterococcus faecalis assessed as bacterial growth at 10.9 ug/ml after 20 hrs by microtiter plate assay. The test is classed as functional.
Test [3] deals with Enterococcus faecalis. Briefly: Antimicrobial activity against Enterococcus faecalis assessed as bacterial growth at 43.8 ug/ml after 20 hrs by microtiter plate assay. The class given is functional.
Test [4] concerns Enterococcus faecalis. Description: Antimicrobial activity against Enterococcus faecalis assessed as bacterial growth at 2.73 ug/ml after 20 hrs by microtiter plate assay. The class given is functional.
Test [5] concerns Enterococcus faecalis. Briefly: Antimicrobial activity against Enterococcus faecalis assessed as bacterial growth at 5.5 ug/ml after 20 hrs by microtiter plate assay. The class given is functional.
Test [6] has as its system Enterococcus faecalis. Briefly: Antimicrobial activity against Enterococcus faecalis assessed as bacterial growth at 21.9 ug/ml after 20 hrs by microtiter plate assay. The class given is functional.
In test [7] the test system is Enterococcus faecalis. Description: Antimicrobial activity against Enterococcus faecalis assessed as bacterial growth at 1.37 ug/ml after 20 hrs by microtiter plate assay. The class given is functional.
Test [8] deals with Enterococcus faecalis. Briefly: Antimicrobial activity against Enterococcus faecalis assessed as inhibition of biofilm formation after 20 hrs by crystal violet staining analysis. The class given is functional, organism-based.
The test system of test [9] is Enterococcus faecalis. Briefly: Antimicrobial activity against Enterococcus faecalis assessed as bacterial growth at 0.17 ug/ml after 20 hrs by microtiter plate assay. The test is classed as functional.
The test system of test [10] is Enterococcus faecalis. Briefly: Antimicrobial activity against Enterococcus faecalis assessed as bacterial growth at 87.5 ug/ml after 20 hrs by microtiter plate assay. The test is classed as functional.
Test [11] has as its system Enterococcus faecalis. Description: Antimicrobial activity against Enterococcus faecalis assessed as bacterial growth at 0.68 ug/ml after 20 hrs by microtiter plate assay. The class given is functional.

The IC50 is the concentration that inhibits the measured activity by half. On to `COc1cccc(/C=C2\OC(=O)C(Br)=C2c2cc(Cl)ccc2OC)c1`, for which the Activity with Enterococcus faecalis [1] is -4.1%; with Enterococcus faecalis [2] it was 9.2%; in the test with Enterococcus faecalis [3], 24.1%; in the test with Enterococcus faecalis [4], 11.8%; in the test with Enterococcus faecalis [5], 9.7%; in the test with Enterococcus faecalis [6], 19.7%. Also, the Activity is recorded as 0.3% in the test with Enterococcus faecalis [7], -1.5% in the test on Enterococcus faecalis [9], 40.5% with Enterococcus faecalis [10] and -5.6% with Enterococcus faecalis [11]. Besides, in the test on Enterococcus faecalis [8], the IC50 was found to be 53.1 µg/mL (≈ 126 µM).
For `COc1ccc(Br)cc1C1=C(Br)C(=O)N(CC(C)C)C1(O)Cc1ccc(Br)cc1` (stereo unspecified), the Activity with Enterococcus faecalis [1] is reported as 10%; in the test on Enterococcus faecalis [2] it was 10.4%; in the test with Enterococcus faecalis [3], 28.1%; in the test on Enterococcus faecalis [4], 8.9%; in the test on Enterococcus faecalis [5], 8.4%; with Enterococcus faecalis [6] it was 15.8%. For the same molecule, the Activity with Enterococcus faecalis [7] was 3.2%; with Enterococcus faecalis [9] it was -8%; with Enterococcus faecalis [10], 42.4%; with Enterococcus faecalis [11], 6.3%. The IC50 with Enterococcus faecalis [8] is 33.4 µg/mL (≈ 56.8 µM).
Regarding `COc1ccc(C)cc1C1=C(Br)C(=O)O/C1=C\c1cccc(Cl)c1`, the Activity in the test with Enterococcus faecalis [1] was -7.9%; in the test on Enterococcus faecalis [2], 17.7%; in the test on Enterococcus faecalis [3], 39.6%; with Enterococcus faecalis [4] it was 9.8%; with Enterococcus faecalis [5], 17.4%; in the test on Enterococcus faecalis [6], 19.4%. The Activity in the test on Enterococcus faecalis [7] is reported as 9.1%; in the test with Enterococcus faecalis [9], -6.4%; in the test with Enterococcus faecalis [10], 55.8%; in the test on Enterococcus faecalis [11], -4.7%. The IC50 in the test on Enterococcus faecalis [8] turned out to be 1.51 µg/mL (≈ 3.72 µM).
`COc1ccc(Cl)cc1C1=C(Br)C(=O)N(CC(C)C)C1(O)Cc1ccccc1Br` (stereo unspecified): the Activity is -1.9% in the test with Enterococcus faecalis [1]; 36.7% with Enterococcus faecalis [2]; 53.9% with Enterococcus faecalis [3]; 30.2% in the test on Enterococcus faecalis [4]; 32.4% in the test with Enterococcus faecalis [5]; 38.4% in the test with Enterococcus faecalis [6]. Moreover, the Activity in the test with Enterococcus faecalis [7] is reported as 19.3%; with Enterococcus faecalis [9] it was -5.1%; in the test on Enterococcus faecalis [10], 78%; in the test with Enterococcus faecalis [11], -10.6%. For the same molecule, the half-maximal inhibitory concentration (IC50) in the test on Enterococcus faecalis [8] came out at 1.29 µg/mL (≈ 2.37 µM).
For the molecule `COc1ccc(Br)cc1C1=C(Br)C(=O)N(CC(C)C)/C1=C/c1ccc(Br)cc1`, the Activity in the test on Enterococcus faecalis [1] is on record as -4.4%; in the test with Enterococcus faecalis [2], 10.6%; in the test with Enterococcus faecalis [3], 22.5%; with Enterococcus faecalis [4], 20.2%; with Enterococcus faecalis [5], 9.6%; in the test on Enterococcus faecalis [6], 18.1%. In addition, the Activity in the test with Enterococcus faecalis [7] was 15.8%; with Enterococcus faecalis [9] it was 0.8%; in the test with Enterococcus faecalis [10], 57.1%; with Enterococcus faecalis [11], 1.8%. Moreover, the IC50 in the test on Enterococcus faecalis [8] turned out to be 3.35 µg/mL (≈ 5.88 µM).
Take `COc1ccccc1C1=C(Br)C(=O)N(CC(C)C)/C1=C\c1ccc(C(F)(F)F)cc1`: the Activity in the test with Enterococcus faecalis [1] is given as -10.4%; in the test on Enterococcus faecalis [2] it was -4.2%; with Enterococcus faecalis [3], 11.2%; with Enterococcus faecalis [4], -6.6%; in the test on Enterococcus faecalis [5], -8%; in the test with Enterococcus faecalis [6], 4%. Moreover, the Activity in the test on Enterococcus faecalis [7] is given as -5.2%; in the test with Enterococcus faecalis [9] it was -2.4%; in the test on Enterococcus faecalis [10], 45%; with Enterococcus faecalis [11], -10.2%. Besides, the half-inhibitory concentration (IC50) with Enterococcus faecalis [8] is 12 µg/mL (≈ 25 µM).
With `COc1ccc(Br)cc1C1=C(Br)C(=O)N(CC(C)C)/C1=C/c1cccc(Cl)c1`, the Activity in the test with Enterococcus faecalis [1] was 20.1%; in the test with Enterococcus faecalis [2] it was 57.3%; in the test on Enterococcus faecalis [3], 75.5%; with Enterococcus faecalis [4] it was 42.5%; in the test on Enterococcus faecalis [5] it was 48.8%; in the test on Enterococcus faecalis [6], 67.3%. Moreover, the Activity in the test on Enterococcus faecalis [7] was found to be 33%; in the test with Enterococcus faecalis [9], 16.1%; with Enterococcus faecalis [10], 98.2%; in the test with Enterococcus faecalis [11] it was 23.5%. In addition, the half-inhibitory concentration (IC50) in the test on Enterococcus faecalis [8] was determined as 3.46 µg/mL (≈ 6.58 µM).
`COc1ccc(C)cc1C1=C(Br)C(=O)N(CC(C)C)/C1=C/c1cccc(Cl)c1`: the Activity in the test on Enterococcus faecalis [1] came to 6.8%; in the test on Enterococcus faecalis [2], 19.4%; in the test on Enterococcus faecalis [3], 38.4%; with Enterococcus faecalis [4], 5%; in the test with Enterococcus faecalis [5] it was 10.5%; in the test with Enterococcus faecalis [6] it was 31.8%. The Activity in the test on Enterococcus faecalis [7] stood at 1.4%; with Enterococcus faecalis [9], 0.4%; with Enterococcus faecalis [10] it was 81.4%; with Enterococcus faecalis [11], 1.4%. Further, in the test with Enterococcus faecalis [8], the 50% inhibitory concentration (IC50) amounted to 59.3 µg/mL (≈ 129 µM).
As to `COc1ccc(Br)cc1C1=C(Br)C(=O)N(CC(C)C)C1(O)Cc1cccc(Cl)c1` (stereo unspecified), the Activity is listed as -4.7% in the test with Enterococcus faecalis [1]; 6.5% in the test on Enterococcus faecalis [2]; 30.3% in the test on Enterococcus faecalis [3]; -4.4% with Enterococcus faecalis [4]; -2.1% with Enterococcus faecalis [5]; 9.3% in the test on Enterococcus faecalis [6]. Besides, the Activity in the test with Enterococcus faecalis [7] is 1.3%; with Enterococcus faecalis [9], 1.3%; with Enterococcus faecalis [10], 48.7%; in the test on Enterococcus faecalis [11] it was -0.8%. Also, in the test with Enterococcus faecalis [8], the half-inhibitory concentration (IC50) is above 87.5 µg/mL.
`COc1ccc(Br)cc1C1=C(Br)C(=O)N(CC(C)C)/C1=C\c1cccc(Cl)c1`: the Activity stood at 12.1% in the test with Enterococcus faecalis [1]; 20% in the test with Enterococcus faecalis [2]; 26.3% with Enterococcus faecalis [3]; 27% in the test with Enterococcus faecalis [4]; 21.8% in the test with Enterococcus faecalis [5]; 20.4% in the test on Enterococcus faecalis [6]. The Activity worked out at 25.1% in the test with Enterococcus faecalis [7], 9.3% in the test on Enterococcus faecalis [9], 94.2% in the test on Enterococcus faecalis [10] and 17.9% in the test with Enterococcus faecalis [11]. Also, in the test with Enterococcus faecalis [8], the half-inhibitory concentration (IC50) worked out at 3.31 µg/mL (≈ 6.3 µM).
With `COc1ccc(Br)cc1C1=C(Br)C(=O)O/C1=C\c1ccc(Br)cc1`, the Activity is -0.3% in the test on Enterococcus faecalis [1]; 19.9% with Enterococcus faecalis [2]; 22.3% in the test with Enterococcus faecalis [3]; 1.1% in the test with Enterococcus faecalis [4]; 9.6% with Enterococcus faecalis [5]; 9.6% in the test with Enterococcus faecalis [6]. Moreover, the Activity is given as 8.8% in the test on Enterococcus faecalis [7], 0.8% in the test with Enterococcus faecalis [9], 35.9% in the test with Enterococcus faecalis [10] and 10.4% with Enterococcus faecalis [11]. The IC50 in the test on Enterococcus faecalis [8] was 18.7 µg/mL (≈ 36.3 µM).
